How the values were obtained:
[1] = test system: non-small cell lung tumor line xenografts; details: mice, reference 20; cited from earlier work
HT1080 cell xenografts = assay: HT1080 xenografts in nude male mice, tumor mass; type: in vivo; details: 200 μl of 1 μM Casodex i.p. at alternate days, 4 weeks, vs vehicle
Description: FIG. 1: Casodex reduces the growth of human fibrosarcoma HT1080 xenografts. HT1080 xenografts were established in nude male mice as described in Methods. Tumors were treated with vehicle alone (ethanol), or the pure androgen antagonist, Casodex (Cx; at 1 μM; Sigma-Aldrich). Tumor mass was measured at the indicated times. Mean and SEM are shown. n represents the number of experiments.
(§1) HT1080 cells in 50% (v/v) Matrigel solution in phosphate-buffered saline (PBS; pH 7.4) were subcutaneously injected in the dorsal posterior region at 2.5×10^6 cells/male athymic mice (CD mice, Charles-River Italia) without hormone priming. Animals were randomly selected for the treatment with Casodex dissolved in 0.1% ethanol or vehicle alone for additional 4 weeks. Tumour volumes of HT1080 cell xeno-grafts were measured by a calliper and expressed as tumour mass (mm^3). For the treatment of each animal, 200 μl of 1 μM Casodex in 0.1% ethanol or the same amount of vehicle alone were intra-peritoneally administered at alternate days to the mice. No difference in body weight was detected between control mice or Casodex-treated mice.

[2] = Body weight of HT1080 xenograft mice; type: in vivo; details: Casodex-treated vs control mice
Description: as §1

Src = target: T1, Src (Homo sapiens, UniProt P12931); assay: Src kinase assay in immune-complexes with enolase as substrate, EGF-stimulated HT1080 cells; type: cell-based; details: EGF 100 ng/ml, 10 μM Casodex, compared with 1 nM S1 peptide
T1 construct: lysates were immune-precipitated with the anti-Src MAb and Src activity in immune-complexes was assayed using enolase as a substrate; endogenous in cells; host or cells: HT1080 human fibrosarcoma cells
T1 sequence (P12931 whole entry): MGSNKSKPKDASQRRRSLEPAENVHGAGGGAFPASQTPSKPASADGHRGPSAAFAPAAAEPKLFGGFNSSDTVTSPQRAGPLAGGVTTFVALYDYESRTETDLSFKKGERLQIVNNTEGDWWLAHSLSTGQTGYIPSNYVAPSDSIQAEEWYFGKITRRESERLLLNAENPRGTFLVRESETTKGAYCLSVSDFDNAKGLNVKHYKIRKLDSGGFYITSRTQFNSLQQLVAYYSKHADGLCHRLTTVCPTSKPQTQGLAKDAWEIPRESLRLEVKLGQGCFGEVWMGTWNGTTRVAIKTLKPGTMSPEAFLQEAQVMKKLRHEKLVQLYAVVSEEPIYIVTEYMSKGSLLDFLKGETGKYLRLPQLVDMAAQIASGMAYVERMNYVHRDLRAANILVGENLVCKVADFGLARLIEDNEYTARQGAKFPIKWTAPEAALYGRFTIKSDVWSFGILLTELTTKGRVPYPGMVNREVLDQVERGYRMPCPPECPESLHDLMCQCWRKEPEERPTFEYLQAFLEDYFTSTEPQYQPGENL
Description: FIG. 3: Inhibition by S1 peptide of AR/Src complex, Src activation and DNA synthesis triggered by EGF in HT1080 cells. Quiescent HT1080 cells were used. The cells were left un-stimulated or stimulated for 10 min with EGF (at 100 ng/ml; Roche) in the absence or presence of S1 or Ss peptide (both at 1 nM). Casodex (at 10 μM) was used for comparison with the S1 peptide. The same concentrations of peptides and Casodex were used throughout the experiments. Upper section in A, the Western blot of HT1080 cell lysates with anti-EGFR antibody is shown. […] Lower section in A, lysates were immune-precipitated with anti EGFR Ab and proteins in immune-complexes were detected using antibodies against the indicated proteins. In B, lysates were immune-precipitated with the anti-Src MAb and Src activity in immune-complexes was assayed using enolase as a substrate. In C, cells on coverslips were left untreated or treated for 18 h with the indicated compounds. After in vivo pulse with BrdU (100 μM; Sigma), BrdU incorporation was analyzed by IF and expressed as % of total nuclei. Mean and SEM are shown. n represents the number of experiments.
Src tyrosine kinase was immune-precipitated, detected and assayed using enolase as a substrate (15). Src, EGF-R and tubulin were detected from cell lysates using appropriate antibodies (7). AR was immune-precipitated and detected as reported (3). […]

HT1080 cells [3] = assay: BrdU incorporation (DNA synthesis) in HT1080 cells; type: cell-based, human; details: EGF, Casodex 10 μM
Description: Androgen challenging of these cells neither induces AR nuclear translocation, nor enhances DNA synthesis while robustly increases cell motility. In A, quiescent HT1080 cells were transfected with 3416 or 3424 ARE-luc constructs with or without hAR expressing plasmid. Details of these procedures have been described in Methods. Cells were left un-stimulated or stimulated for 18 h with 10 nM R1881. The luciferase activity was assayed, normalized using beta-gal as an internal control, and expressed as fold induction. Means and SEM are shown; n represents the number of experiments. […] In B, quiescent HT1080 cells on coverslips were left untreated or treated for 60 min with 10 nM R1881. Cells were analysed by IF for AR (left images) or Hoechst (right images). Images are representative of three independent experiments. […] In C, BrdU incorporation in cells on coverslips was analysed and expressed as in FIG. 2. In D, the number of migrated cells was evaluated and expressed as relative increase. […]
FIG. 3: Inhibition by S1 peptide of AR/Src complex, Src activation and DNA synthesis triggered by EGF in HT1080 cells. […] Lower section in A, lysates were immune-precipitated with anti EGFR Ab and proteins in immune-complexes were detected using antibodies against the indicated proteins. […] After in vivo pulse with BrdU (100 μM; Sigma), BrdU incorporation was analyzed by IF and expressed as % of total nuclei. […]

MMP-9 = MMP-9 release from HT1080 cells (fluorescent AK411 kit); type: cell-based, human; details: 6 h, Casodex 10 μM
Description: (§2) FIG. 4: The S1 peptide inhibits EGF-stimulated migration and MMP-9 secretion in HT1080 cells. Quiescent HT1080 cells were used. In A, cells were left untreated or treated for 6 h with the indicated compounds. MMP-9 release was assayed as described in Methods. In B, cells were allowed to migrate for 6 h in Trans-well filters in the absence or presence of the indicated compounds. Migrated cells were stained and counted as reported in Methods. In A and B, data were expressed as relative increase. Mean and SEM is shown. n represents the number of experiments. In C, cells were wounded and then left unstimulated or stimulated for 6 h with the indicated compounds. Contrast-phase images are representative of 3 different experiments, each performed in duplicate.
(§3) BrdU incorporation, migration and wound healing analysis were done as described (3, 11). MMP-9 activity was assayed (12, 13), using the fluorescent AK411 kit (BIOMOL Res. Lab.).

HT1080 cells [4] = assay: Migration in Trans-well filters and wound healing of HT1080 cells; type: cell-based, human; details: 6 h, Casodex 10 μM
Description: as §2, §3

EGF receptor (EGFR) = target: T2, EGF receptor (EGFR) (human, UniProt P00533 25-1210); assay: immune-precipitation with anti-EGFR antibody from EGF-stimulated HT1080 lysates, immunoblot
T2 construct: Endogenous protein of HT1080 cells
Description: Quiescent HT1080 cells were used. […] The same concentrations of peptides and Casodex were used throughout the experiments. […] In C, cells on coverslips were left untreated or treated for 18 h with the indicated compounds. After in vivo pulse with BrdU (100 μM; Sigma), BrdU incorporation was analyzed by IF and expressed as % of total nuclei. Mean and SEM are shown. n represents the number of experiments.
The ECL system (GE Healthcare) was used to reveal immune-reactive proteins.

Molecule: C[C@]12CC[C@@H]3c4ccc(O)cc4C[C@@H](CCCCCCCCC[S+]([O-])CCCC(F)(F)C(F)(F)F)[C@H]3[C@@H]1CC[C@@H]2O (some centres unmarked) [ICI 182,780]
- estrogen-stimulated growth of non-small cell lung tumor line xenografts [1]: blocks

Molecule: CC(O)(CS(=O)(=O)c1ccc(F)cc1)C(=O)Nc1ccc(C#N)c(C(F)(F)F)c1 (centres unmarked) [Casodex, reference compound]
- growth (tumor mass) of HT1080 xenografts (HT1080 cell xenografts): reduced
- body weight [2]: No difference
- EGF stimulation of Src activity (Src): comparable
- EGF mitogenic effect (DNA synthesis) (HT1080 cells [3]): abolishes
- EGF-stimulated MMP-9 secretion (MMP-9): inhibits
- EGF-increased motility (HT1080 cells [4]): inhibited at a similar extent

B1: androgen receptor (AR) (receptor, human, UniProt P10275 1-920, looked up)
chain: MEVQLGLGRVYPRPPSKTYRGAFQNLFQSVREVIQNPGPRHPEAASAAPPGASLLLLQQQQQQQQQQQQQQQQQQQQQQQETSPRQQQQQQGEDGSPQAHRRGPTGYLVLDEEQQPSQPQSALECHPERGCVPEPGAAVAASKGLPQQLPAPPDEDDSAAPSTLSLLGPTFPGLSSCSADLKDILSEASTMQLLQQQQQEAVSEGSSSGRAREASGAPTSSKDNYLGGTSTISDNAKELCKAVSVSMGLGVEALEHLSPGEQLRGDCMYAPLLGVPPAVRPTPCAPLAECKGSLLDDSAGKSTEDTAEYSPFKGGYTKGLEGESLGCSGSAAAGSSGTLELPSTLSLYKSGALDEAAAYQSRDYYNFPLALAGPPPPPPPPHPHARIKLENPLDYGSAWAAAAAQCRYGDLASLHGAGAAGPGSGSPSAAASSSWHTLFTAEEGQLYGPCGGGGGGGGGGGGGGGGGGGGGGGEAGAVAPYGYTRPPQGLAGQESDFTAPDVWYPGGMVSRVPYPSPTCVKSEMGPWMDSYSGPYGDMRLETARDHVLPIDYYFPPQKTCLICGDEASGCHYGALTCGSCKVFFKRAAEGKQKYLCASRNDCTIDKFRRKNCPSCRLRKCYEAGMTLGARKLKKLGNLKLQEEGEASSTTSPTEETTQKLTVSHIEGYECQPIFLNVLEAIEPGVVCAGHDNNQPDSFAALLSSLNELGERQLVHVVKWAKALPGFRNLHVDDQMAVIQYSWMGLMVFAMGWRSFTNVNSRMLYFAPDLVFNEYRMHKSRMYSQCVRMRHLSQEFGWLQITPQEFLCMKALLLFSIIPVDGLKNQKFFDELRMNYIKELDRIIACKRKNPTSCSRRFYQLTKLLDSVQPIARELHQFTFDLLIKSHMVSVDFPEMMAEIISVQVPKILSGKVKPIYFHTQ
notes: Endogenous protein of HT1080 cells (co-immunoprecipitation from lysates)
- binding result (EGF receptor (EGFR)): binds

Reference: patent US10400008B2, “Modulators of the SRC-kinase activity for preventing or treating metastatic cancer” (Cancer Research Technology Limited, priority 2013, dated 2019)
